pIC50: −log10 of the molar value.
What was measured:
mushroom tyrosinase = assay: Mushroom tyrosinase activity, cell-free, L-DOPA substrate; assay type: biochemical; conditions: all concentrations tested
Experimental: The direct effects of the compounds on tyrosinase enzyme activity were tested using mushroom tyrosinase enzyme with L-DOPA substrate. Briefly, 80 μl of all the 6 test compounds prepared at different concentrations in 50 mM sodium phosphate (pH 6.5) buffer was added to 96 wells followed by 100 μl of freshly prepared substrate solution (3 mM L-DOPA in buffer). The reaction was initiated by adding 20 μl of mushroom tyrosinase enzyme (final concentration of enzyme in wells was 3.5 μg/ml). The production of DOPAchrome was monitored by measuring the kinetics of absorbance increase at 475 nm (for 30 min every 30 seconds) at 30° C. using microplate reader (Versamax®). The slopes of the kinetic readings were calculated to determine and compare tyrosinase activity from control.

[1] = biological target: T1, cellular tyrosinase in B16F10 cells (Mus musculus, UniProt P11344); assay: Intracellular tyrosinase activity in B16F10 cells; assay type: cell-based; conditions: B16F10 cells exposed for 48 hours; non-linear curve fitting; read-out: IC50-Cellular tyrosinase inhibition
T1 construct: endogenous in cells; host or cells: B16F10
T1 sequence (P11344 19-533): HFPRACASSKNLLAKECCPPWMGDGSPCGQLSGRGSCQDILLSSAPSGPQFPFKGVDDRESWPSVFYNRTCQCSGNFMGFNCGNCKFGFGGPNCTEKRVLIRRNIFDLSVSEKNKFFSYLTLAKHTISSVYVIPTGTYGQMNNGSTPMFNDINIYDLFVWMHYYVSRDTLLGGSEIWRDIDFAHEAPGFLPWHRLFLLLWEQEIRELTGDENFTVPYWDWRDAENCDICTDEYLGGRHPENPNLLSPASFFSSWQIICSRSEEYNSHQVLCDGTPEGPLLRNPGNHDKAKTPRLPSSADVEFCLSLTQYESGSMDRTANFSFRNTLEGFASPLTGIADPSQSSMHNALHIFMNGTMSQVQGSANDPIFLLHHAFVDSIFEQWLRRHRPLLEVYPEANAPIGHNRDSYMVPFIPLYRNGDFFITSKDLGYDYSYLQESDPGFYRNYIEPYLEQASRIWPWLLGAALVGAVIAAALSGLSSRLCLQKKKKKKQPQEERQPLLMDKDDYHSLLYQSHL
Experimental: We quantitated the cellular tyrosinase activity to delineate mechanism of melanogenesis inhibition by the compounds. Briefly, B16F10 cells were cultured in 24-well tissue culture plates at a density of 4×10^4 cells/well. After 24 hrs, media was changed and test compounds were added, and further incubated for 48 hrs. At the end of treatments, cells were trypsinized and cell pellets were washed in PBS and lysed with lysis buffer (containing 1% NP-40 to solubilize the normally membrane-bound enzyme and protease inhibitors) under ice for 20 minutes and then centrifuged to remove cellular debris. 50 μl of lysates were then aliquoted in 96-well microplate and 150 μl of 3 mM solution of freshly prepared L-DOPA in phosphate buffer, pH 6.8 was added. […] The % inhibition of tyrosinase activity was calculated by determining melanin formation rates from measurements of the linear regions of the slopes of melanin content as a function of time and comparing computed rates of melanin formation in the presence of the test compounds to those of the controls.

DPPH antioxidant assay = conditions: cell-free
From the text: Melanogenesis is often associated with higher oxidative stress and reactive oxygen species (ROS) generation. […] DPPH is a stable free radical which changes color from purple to yellow upon reduction by antioxidant compounds by electron donation; the color change can be measured spectrophotometrically. […] Briefly, 2,2-Diphenyl-1-picrylhydrazyl (DPPH) was freshly prepared in methanol and mixed with different concentrations of the compounds in triplicates in a 96 well plate. The Negative Control group consisted of DPPH only and Ascorbic Acid (AA) at 100 μg/ml was used as a positive control. The final DPPH concentration was 100 μM and final volume was 200 ul in the plate (20 μl samples with 180 μl of DPPH). The plate was covered and incubated for 30 minutes. Absorbance was read at 517 nm.

MITF = MITF protein levels by cell-based ELISA in B16F10 cells; set-up: species or system mouse; conditions: 48 hours
Experimental: MITF is the master regulator of melanogenesis and a known transcription factor for tyrosinase gene. The effects of PC and CMCs on micropthalmia transcription factor (MITF) proteins levels were assayed using a cell-based ELISA (LifeSpan Biosciences, Seattle). Briefly, B16F10 cells were cultured in a 96-well plate at 1×10^4 cells/well for 24 hours and then media was replaced with fresh media containing compounds in 0.1% DMSO for further 48 hours. The cells were then fixed and subsequent steps were conducted based on manufacturer instructions. The absorbance of MITF expression levels were normalized by absorbance of crystal violet stain (0.05%) and data was reported as % of control.

HaCaT cells = assay: Phagocytosis assay using Fluosphere beads in keratinocytes; assay type: cell-based, human; conditions: beads 24 hours
From the text: The final steps of melanognesis in the skin involve transfer of melanin contained within matgure melanosomes from melanocytes to keratinocytes. In order to model melanosome uptake by keratinocytes in the presence of CMCs, we used uptake of fluosphere latex beads (0.5 μm, carboxylate-modified, Molecular Probes, Eugene, Oreg.) by a human keratinocyte cell line (HaCaT) as a model for melanosome uptake study; this model has been previously established [Cardinali G, et al. 2005; Cardinali, G. et al. 2008] to study phagocytosis by keratinocytes. HaCaT cells were cultured in 24 well plates (3.5×10^4 cells/well) for 48 hours and then media was replaced with fresh media containing CMCs (CMC2.14 at 10 μM, CMC2.5 at 20 μM, CMC2.23 at 20 μM and CMC2.24 at 20 μM). Control wells were treated with 0.1% DMSO. After 48 hours exposure, media was removed and wells were washed with PBS and Fluosphere bead solution was suspended in complete medium by sonication for 15 minutes was then diluted in complete medium before addition to the wells ([…]) and further incubation for 24 hours. After the treatment, wells were washed in PBS and extracellular fluorescence was quenched using trypan blue (0.1% in PBS); Fluorescence intensity over the entire bottom surface of each well was measured at excitation/emission of 580/605 using the “well-scan” mode with average of 21 points/well for triplicate wells in a Gemini EM fluorescence plate reader. Controls without any beads were used as blank for background subtraction and results are reported as RFU values expressed as % relative to control.

[2] = B16F10, 5 μM (printed 5 M for CMC2.23)
[3] = B16F10, 20 μM (printed 20 M for CMC2.5)

Compound | inhibition of mushroom tyrosinase activity (mushroom tyrosinase) | pIC50 [1] | DPPH antioxidant activity (DPPH antioxidant assay) | inhibition of MITF protein levels (MITF; [2]) | inhibition of MITF protein levels (MITF; B16F10, 10 μM) | inhibition of MITF protein levels (MITF; [3]) [%] | inhibition of phagocytosis of Fluosphere beads (HaCaT cells; 20 μM pretreatment 48 hours) [%] | inhibition of MITF protein levels (MITF; B16F10, tested concentrations 5-10 μM) | inhibition of phagocytosis of Fluosphere beads (HaCaT cells; 10 μM pretreatment 48 hours) [%] | inhibition of MITF protein levels (MITF; B16F10, 25 μM) [%]
COC(=O)C(C(=O)C=Cc1ccc(O)c(OC)c1)C(=O)C=Cc1ccc(O)c(OC)c1 (stereo not shown) [CMC2.5, 4-methoxycarbonyl curcumin] | moderate inhibition | 4.29 | significant DPPH radical scavenging activity | did not show any suppression | did not show any suppression | 35 | 38.4 |  |  | 
COC(=O)C(C(=O)/C=C/c1ccc(O)cc1)C(=O)/C=C/c1ccc(O)cc1 [CMC2.14] | moderate inhibition | 5.33 | did not demonstrate potent antioxidant activity |  |  |  |  | did not show any significant reduction | 39.6 | 
COc1cc(/C=C/C(=O)C(C(=O)/C=C/c2ccc(O)c(OC)c2)C(=O)Nc2ccccc2)ccc1O [CMC2.23] | moderate inhibition | 4.89 | significant DPPH radical scavenging activity | 20% |  | 40 | 37.4 |  |  | 40
